Results on three compounds are retold here after paper PMC7344659, “Bioactivity of Spongian Diterpenoid Scaffolds from the Antarctic Sponge Dendrilla antarctica” (Marine Drugs, 2020).

pIC50: −log10 of the molar value. Read-outs that look alike come from different tables or passages of the source.

Data set [1] concerns primary human hepatocytes. Put plainly: Cytotoxicity towards uninfected primary human hepatocytes. It is filed as cell-based. The following applies: for inhibition at 5 µg/mL: Hepatocyte, 5 μg/mL, uninfected primary human hepatocytes, % (Standard Deviation), n = 3, read-out: Plasmodium falciparum Inhibition at 5 μg/mL Uninfected PHHs. The method, then: (§1) The full suite of Dendrilla antarctica-derived compounds, with the exception of darwinolide (1) and dendrillin D (12) owing to mass limitations, were tested against Leishmania donovani infected macrophages, liver-stage sporozoites in primary human hepatocytes, and against MRSA biofilm. Cytotoxicity was evaluated using the mammalian J774A.1 cell line in L. donovani-active compounds, while primary human hepatocytes were evaluated for malaria-active compounds.
(§2) For the Plasmodium falciparum infected liver cells, screening was conducted at a fixed concentration of 5 µg/mL for each compound, and activities representing 60% inhibition and 100% inhibition are reported in comparison with the positive control primaquine. […] Aplysulphurin (2) at ≤13 μM was also active at the highest level.
(§3) The liver-stage Plasmodium falciparum assay was conducted as previously reported.

The subject of data set [2] is J774A.1 macrophages. Put plainly: J774A.1-cell cytotoxicity assay (uninfected macrophage). The data set is classed as cell-based. The note with it: Mus musculus, J774.A1; cytotoxicity, uninfected J774A.1 macrophages; single point determination; read-out: Leishmania donovani IC50 Uninfected Macrophage. The method, then: as §1
(§4) The Leishmania donovani cell line infected macrophage assay and cytotoxicity screen were conducted as previously described.

Assay in data set [3]: as above
It is filed as cell-based. The following applies: mouse, J774A.1 macrophage cells (uninfected); Table 3; unit not given (μM in Table 2); read-out: J774 Cytotoxiciy. The method, then: as §1, §4

The subject of data set [4] is Leishmania donovani. Put plainly: Leishmania donovani infected macrophage assay. The note with it: for pIC50: single point determination, read-out: Leishmania donovani IC50 Infected Macrophage. The data set is classed as cell-based. The method, then:
as §1
(§5) The results from the Leishmania donovani assay (Table 2) indicate activity commensurate with the positive control and current standard of care, miltefosine (2.9 µM) is observed in aplysulphurin (2, 3.1 μM), tetrahydroaplysulphurin-1 (4, 3.5 μM), dendrillin B (10, 3.5 μM), 8-ketodihydrogracilin (13, 4.5 μM), and triol 15 (4.5 μM).
as §4

Data set [5] can be described thus: Leishmania donovani infected macrophage assay. The data set is classed as cell-based. The note with it: mouse, J774A.1 cytotoxicity / L. donovani activity; read-out: selectivity index (SI, mammalian cytotoxicity/antiprotozoal activity). The method, then: as §1, §5, §4
For data set [6], the system named is Plasmodium falciparum. Put plainly: Liver-stage Plasmodium falciparum assay in primary human hepatocytes. It is filed as cell-based. The note with it: for inhibition at 5 µg/mL: Plasmodium falciparum, Hepatocyte, 5 μg/mL, infected primary human hepatocytes, % (Standard Deviation), n = 3, read-out: Plasmodium falciparum Inhibition at 5 μg/mL Infected PHHs. The method, then:
as §1, §2, §3

A further data set has as its system MRSA biofilm. Put plainly: MRSA biofilm eradication assay. It is filed as cell-based, methicillin-resistant Staphylococcus aureus. The following applies: for inhibition at 25 µg/mL / inhibition at 50 µg/mL / inhibition at 100 µg/mL: Staphylococcus aureus, MRSA; for inhibition at 50 µg/mL: 50 μg/mL; for inhibition at 100 µg/mL: 100 μg/mL. The method, then: The MRSA biofilm assay was carried out at concentrations of 100, 50, and 25 µg/mL for each compound, and activities representing 50% and 90% eradication are reported.
The MRSA biofilm assay was conducted as previously reported.

Data set [7] deals with Plasmodium falciparum. Put plainly: Liver-stage Plasmodium falciparum assay in primary human hepatocytes. The data set is classed as cell-based. The following applies: Table 3; SI = J774 IC50/pathogen IC50.
The subject of data set [8] is methicillin-resistant Staphylococcus aureus (MRSA) biofilm. Set-up: method as in PMID 27175857. The following applies: ref [17]; cited from earlier work.
The test system of data set [9] is J774A.1 macrophages. More on the design: method as in PMID 32281798. The note with it: ref [15], cited from earlier work.
Data set [10] relates to Leishmania donovani. Set-up: method as in PMID 32281798. The following applies: J774A.1 macrophages, single point determination, ref [15], read-out: Leishmania donovani IC50 Infected Macrophage, cited from earlier work.

As for `C[C@@H](CO)c1c([C@@]2(C)CCCC(C)(C)C2)ccc(CO)c1CO` [Triol (15)], in data set [1] (5 µg/mL screen), the “cytotoxicity towards uninfected primary human hepatocytes (in words)” value was “no discernable cytotoxicity”. Further, the inhibition at 5 µg/mL was determined as 2.2% in data set [1] and 81% in the data set with Plasmodium falciparum [6]. Besides, the pIC50 in the data set on J774A.1 macrophages [2] is below 3.80; in the data set with Leishmania donovani [4] (J774A.1 macrophages), 5.38; with Leishmania donovani [4] (Leishmania donovani, J774.A1, J774A.1 macrophages), 5.35. Further, in data set [3], the IC50 is above 160 µM. Moreover, the “selectivity index (SI, mammalian cytotoxicity/antiprotozoal activity)” value in the data set with Leishmania donovani [4] (J774A.1 cytotoxicity / L. donovani activity) is given as around 40. The selectivity ratio in data set [5] was above 38. Moreover, in the data set on Plasmodium falciparum [6] (Table 3, no unit printed there (≤16 μM)), the “Pathogen Activity, Plasmodium falciparum” value is listed as at most 16. The “inhibition of the parasite cultures (Plasmodium falciparum)” value with Plasmodium falciparum [6] (at low micromolar concentrations) was found to be 100%. In addition, the “concentration with 100% inhibition against P. falciparum infected liver cells” value with Plasmodium falciparum [6] (screen at fixed 5 µg/mL, 100% inhibition level (highest level)) was at most 16 µM. This compound also came in with an inhibition at 25 µg/mL in the data set with MRSA biofilm (25 μg/mL, % (Std. Dev.), n = 6) of 2.6%. For the same compound, the inhibition at 50 µg/mL with MRSA biofilm (% (Std. Dev.), n = 6) is 12.3%. The inhibition at 100 µg/mL with MRSA biofilm (% (Std. Dev.), n = 6) came to 9.3%. Besides, the “Selectivity Index (SI), Plasmodium falciparum” value with Plasmodium falciparum [7] is above 10.

`CC(=O)O[C@@H]1O[C@H]2OC(=O)C3=C(C)[C@@H]([C@@]4(C)CCCC(C)(C)C4)CC[C@@H]1[C@H]32` [darwinolide (1), darwinolide]: in data set [8], the “potency against MRSA biofilm relative to planktonic MRSA” value was “four times more potent against the biofilm than it was against planktonic MRSA”.

As for `COC(=O)[C@H](C)c1c([C@@]2(C)CCCC(C)(C)C2)ccc2c1C(=O)OC2` [Membranolide (5), membranolide], the inhibition at 5 µg/mL turned out to be 0% in data set [1] and 59.7% with Plasmodium falciparum [6]. The selectivity ratio in data set [5] is 8. Further, the “MRSA Biofilm Inhibition 25 μg/mL” value with MRSA biofilm (25 μg/mL, % (Std. Dev.), n = 6) is reported as 99.7 (0.1) %. This compound also showed an inhibition at 25 µg/mL in the data set with MRSA biofilm (25 μg/mL, % (Std. Dev.), n = 6) of around 100%. Also, the inhibition at 50 µg/mL with MRSA biofilm (% (Std. Dev.), n = 6) is 99.9%. The same compound displayed an inhibition at 100 µg/mL in the data set with MRSA biofilm (% (Std. Dev.), n = 6) of 100%. The “Pathogen Activity, MRSA Biofilm” value in the data set with MRSA biofilm (Table 3, no unit printed there (58 μM)) turned out to be 58. For the same compound, the “concentration achieving 90% eradication of MRSA biofilm” value with MRSA biofilm (lowest concentration tested, 25 μg/mL, in molar units) is 58 µM; in the data set with MRSA biofilm (tested at 100, 50 and 25 µg/mL, 90% eradication), 25 µg/mL. The pIC50 with J774A.1 macrophages [9] (Table 3, no unit printed there, same values marked as from reference in Table 2, read-out: J774 Cytotoxiciy) is 4.11; in the data set with J774A.1 macrophages [9] (cytotoxicity, uninfected J774A.1 macrophages, single point determination, listed as membranolide (5), read-out: Leishmania donovani IC50 Uninfected Macrophage), 4.11; in the data set on J774A.1 macrophages [9] (cytotoxicity, uninfected J774A.1 macrophages, single point determination, read-out: Leishmania donovani IC50 Uninfected Macrophage) it was 4.11; in the data set with Leishmania donovani [10] (listed as 5) it was above 5.00; in the data set with Leishmania donovani [10], 5.01.
